This is an account of results in patent US8175815B2, “Method for assessing absorption properties of low solubility compounds” (F. Hoffmann-La Roche AG, priority 2006, dated 2012).

Like-named read-outs stand apart in the source and are kept apart here.

The conditions of data set [1]: 18 h.
For data set [2] the following is noted: PAMPA.
The conditions of data set [3]: dogs, gel caps, 200 mg/kg; cited from earlier work.
Data set [4] can be described thus: physchem.
A short description of data set [5]: physchem. This is another data set of the same source.
For data set [6] the following is noted: cited from earlier work.

With `COc1ccc(Cl)cc1C(=O)NCCc1ccc(S(=O)(=O)NC(=O)NC2CCCCC2)cc1` [glybenclamide], the “n ± SD” value in data set [1] is recorded as 1.1 ± 0.1. In data set [2] (pH 5), the “average flux gain factor” value is 3.1 and the flux increase factor stood at 20.1. The same compound had a flux increase factor in data set [2] (pH 6.2) of 4.3. The compound also returned a flux decrease factor in data set [2] (pH 7.4) of 3. Further, in data set [3], the “Cmax +HP-β-CD” value is 610 ng/mL, the Cmax no excip. was 83.9 ng/mL, the “Tmax +HP-β-CD” value is 2.5 h and the Tmax no excip. was 4.5 h. In data set [4], the pKa – broadly, the negative logarithm of the acid dissociation constant – came out at 5.75 ± 0.15. In addition, the pKa at 18 h in data set [5] (negative shift in the apparent pKa) was found to be 1.6. Besides, the pKa at 18 h in data set [5] (pKa^APP ± SD) worked out at 4.6 ± 0.1.

On to hydroxypropyl-β-cyclodextrin [HP-β-CD], for which the solubility (commonly the dissolved amount per volume that the medium holds) in data set [6] was 450 mg/mL.
